Measured values as given in US5424185A, “Human high-affinity neurotransmitter uptake system” (Baylor College of Medicine, priority 1990, dated 1995).
Read-outs that look alike come from different tables or passages of the source.

Columns and labels:
[1] = system: human glycine transporter (L-GLY2 cells)
Protocol: The incubation was conducted for 40 min at 37° C. Each well was washed three times at room temperature with excess Ringer's buffer and then incubated with 50 μl of alkaline phosphatase buffer (100 mM Tris, pH 9.5, 100 mM NaCl, 10 mMMgCl2, 20 μg/ml saponin, 3.2 mg/ml p-nitrophenyl phosphate) for 1-2 hours at 37° C. The phosphatase assay was used as a relative assessment of cell number, and used to normalize the level of [^3 H]glycine associated with each well as described above. The phosphatase reading for each assayed well was plotted versus its corresponding level of [^3 H]glycine-retention.
(§1) L-GLY2 and L-M cells were assayed for the uptake of [^3 H] glycine (0.1 μM) in the presence or absence of competing, unlabelled amino acids or neurotransmitters. Each competing ligand was present in 1000-fold molar excess (100 μM) of the [^3 H] glycine. […] The assays were performed at 37° C. for 40 minutes. Alanine, proline and serine, each at 1 mM, was added to the Ringer's buffer for all assays.
(§2) At each concentration of [^3 H] glycine used, both uptake levels were converted to picomole-equivalents of [^3 H] glycine, then normalized by both length of assay and corresponding protein contents to arrive at the uptake velocity values. The nonspecific uptake velocity was then subtracted from the total uptake velocity to yield the specific uptake velocity. The specific uptake velocities and their corresponding [^3 H] glycine concentrations were analyzed by both Michaelis-Menten and Lineweaver-Burk transformations of the resulting kinetic profiles. For both analyses, data-points were fitted to either linear or logarithmic functions by computerized algorithms.

[2] = system: L-M cells; conditions: ligand 100 μM (1000-fold excess), 0.1 μM [3H]glycine, 40 min, 37° C.
Protocol: as §1, §2

[3] = system: GABA transporter (L-GAB1 cells); assay: [3H]GABA uptake by L-GAB1 cells; format: cell-based, human; conditions: competitor at 100-fold excess relative to [3H]GABA
Protocol: Using concentrations of [^3 H] GABA ranging from 2 to 500 μM, the kinetic profile of GABA uptake was determined for both L-GAB1 and L-M cells. The initial velocity of GABA uptake was measured and plotted against the corresponding [^3 H] GABA concentration for both cell lines. […] The velocity profile for L-GAB1 cells was subtracted by that of L-M cells, and the resulting data used for a double-reciprocal plot of velocity-^1 against GABA concentration-^1. The velocity profile for L-M cells was also transformed into a double-reciprocal plot.
Several known inhibitors of high-affinity GABA uptake were used to examine their efficacies in inhibiting [^3 H] GABA uptake by L-GAB1 cells. […] Each of these agents was used at several concentrations ranging from 1 to 100 μM in assays of [^3 H] GABA uptake by L-GAB1 cells. […] GABA uptake by L-GAB1 cells.
L-GAB1 cells were also analyzed in terms of their ligand-specificity in the high-affinity GABA uptake mechanism.

[4] = system: goldfish retina; conditions: tissue, published value, cited from earlier work
[5] = system: monkey retina; conditions: tissue, published value, cited from earlier work
[6] = system: frog retina; conditions: read-out: Km, frog retina; tissue, published value; cited from earlier work
[7] = system: human brain (post-mortem); conditions: membrane preparation, published value, cited from earlier work
[8] = system: C6 glioblastoma; conditions: read-out: Km, C6 glioblastoma; membrane preparation, published value; cited from earlier work
[9] = system: frog brain; conditions: membrane preparation, published value, cited from earlier work
[10] = system: frog spinal cord; conditions: membrane preparation, published value, cited from earlier work
[11] = system: rat brain; conditions: membrane preparation, published value, cited from earlier work
[12] = system: rat spinal cord; conditions: membrane preparation, published value, cited from earlier work
[13] = system: chicken brain; conditions: membrane preparation, published value, cited from earlier work
[14] = system: chicken spinal cord; conditions: membrane preparation, published value, cited from earlier work
[15] = system: mouse cerebral cortex; conditions: membrane preparation, published value, cited from earlier work
[16] = system: mouse pons-medulla-spinal cord; conditions: membrane preparation, published value, cited from earlier work
[17] = system: Y79 retinoblastoma; conditions: cell, published value, cited from earlier work

NCC(=O)O [glycine]
Vmax of glycine uptake, L-GLY2 ([1]; 50 nM to 5 μM [3H]glycine, 10 min, Lineweaver-Burk): 10.19±3.32 pmol/min/mg protein | Vmax, L-GLY2 ([1]; Table IV): 10.19 ± 3.32 pmol/mg/min | effect of competing ligand on [3H]glycine uptake, L-GLY2 ([1]; ligand 100 μM (1000-fold excess), 0.1 μM [3H]glycine, 40 min, 37° C., 1 mM alanine, proline, serine): reduced [^3 H] glycine transport into L-GLY2 cells to the same level as that of L-M cells | Km ([1]; read-out: Km, L-GLY2, Table IV): 1.5 ± 0.2 µM | Km ([1]; read-out: apparent Km of glycine uptake, L-GLY2, 50 nM to 5 μM [3H]glycine, 10 min, Lineweaver-Burk): 1.5 µM | effect of competing ligand on [3H]glycine uptake, L-M [2]: not significantly inhibited | ligand-specificity of [3H]GABA uptake by L-GAB1 cells [3]: not inhibited | Km ([4]; read-out: Km, goldfish retina): 8.08 ± 0.7 µM | Vmax, goldfish retina [4]: 8.71 ± 0.54 pmol/mg/min | Km ([5]; read-out: Km, monkey retina): 2.5 ± 0.9 µM | Vmax, monkey retina [5]: 3.30 ± 1.60 pmol/mg/min | Km [6]: > 4.7 µM | Vmax, human brain (post-mortem) [7]: 55 ± 25 pmol/mg/min | Km ([7]; read-out: Km, human brain (post-mortem)): 35 ± 19 µM | Km [8]: 100 µM | Vmax, frog brain [9]: 1.14 ± 0.06 pmol/mg/min | Km ([9]; read-out: Km, frog brain): 24.8 ± 1.4 µM | Vmax, frog spinal cord [10]: 1.52 ± 0.03 pmol/mg/min | Km ([10]; read-out: Km, frog spinal cord): 29 ± 0.7 µM | Vmax, rat brain [11]: 0.48 ± 0.07 pmol/mg/min | Km ([11]; read-out: Km, rat brain): 34 ± 1.3 µM | Vmax, rat spinal cord [12]: 1.43 ± 0.02 pmol/mg/min | Km ([12]; read-out: Km, rat spinal cord): 46.5 ± 1.6 µM | Vmax, chicken brain [13]: 0.32 ± 0.01 pmol/mg/min | Km ([13]; read-out: Km, chicken brain): 37 ± 2 µM | Vmax, chicken spinal cord [14]: 0.65 ± 0.02 pmol/mg/min | Km ([14]; read-out: Km, chicken spinal cord): 41.8 ± 1 µM | Vmax, mouse cerebral cortex [15]: 340 ± 70 pmol/mg/min | Km ([15]; read-out: Km, mouse cerebral cortex): 15.2 ± 2 µM | Vmax, mouse pons-medulla-spinal cord [16]: 3100 ± 100 pmol/mg/min | Km ([16]; read-out: Km, mouse pons-medulla-spinal cord): 27.6 ± 2.6 µM | Vmax, Y79 retinoblastoma [17]: 138.40 ± 12.40 pmol/mg/min | Km ([17]; read-out: Km, Y79 retinoblastoma): 24.4 ± 2.6 µM
